What was measured:
Assay in all cases: relative viability (nuclei count vs DMSO), 5 days (fraction); higher = more cells survive
[1] = tested on: ABC-1
In short: (§1)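 Each reported value is a median over duplicate plates. It expresses relative viability: treated-well nuclei count divided by vehicle-well nuclei count. Lung cancer cell lines in 1536-well plates were dosed by pin tool a day after seeding, alone with one drug or with a fixed anchor-drug dose plus five library-drug doses (not always all listed) in √10 steps, and nuclei were counted after 5 days.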

[2] = tested on: COR-L23
In short: as §1

[3] = tested on: H3255
In short: as §1

[4] = tested on: HCC-15
In short: as §1

[5] = tested on: HCC-366
In short: as §1

[6] = tested on: HCC-827
In short: as §1

[7] = tested on: LC-2-ad
In short: as §1

[8] = tested on: LCLC-103H
In short: as §1

[9] = tested on: LXF-289
In short: as §1

[10] = tested on: NCI-H1437
In short: as §1

[11] = tested on: NCI-H1666
In short: as §1

[12] = tested on: NCI-H1975
In short: as §1

[13] = tested on: NCI-H2009
In short: as §1

[14] = tested on: NCI-H2085
In short: as §1

[15] = tested on: NCI-H2087
In short: as §1

[16] = tested on: NCI-H2228
In short: as §1

[17] = tested on: NCI-H2342
In short: as §1

[18] = tested on: NCI-H23
In short: as §1

[19] = tested on: NCI-H661
In short: as §1

[20] = tested on: PC-14
In short: as §1

[21] = tested on: PC-3 [JPC-3]
In short: as §1

[22] = tested on: SK-MES-1
In short: as §1

[23] = tested on: UMC-11
In short: as §1

## Cc1cn(-c2cc(NC(=O)c3ccc(C)c(Nc4nccc(-c5cccnc5)n4)c3)cc(C(F)(F)F)c2)cn1 [Nilotinib] + CC(=O)c1c(C)c2cnc(Nc3ccc(N4CCNCC4)cn3)nc2n(C2CCCC2)c1=O [Palbociclib] (partner 0.5 µM)
[1]; first compound 0.001 µM
  relative viability: 0.634
[1]; first compound 0.003162 µM
  relative viability: 0.697
[1]; first compound 0.01 µM
  relative viability: 0.775
[1]; first compound 0.03162 µM
  relative viability: 0.699
[1]; first compound 0.1 µM
  relative viability: 0.466
[2]; first compound 0.001 µM
  relative viability: 0.288
[2]; first compound 0.003162 µM
  relative viability: 0.301
[2]; first compound 0.01 µM
  relative viability: 0.317
[2]; first compound 0.03162 µM
  relative viability: 0.268
[2]; first compound 0.1 µM
  relative viability: 0.223
[3]; first compound 0.001 µM
  relative viability: 0.317
[3]; first compound 0.003162 µM
  relative viability: 0.286
[3]; first compound 0.01 µM
  relative viability: 0.313
[3]; first compound 0.03162 µM
  relative viability: 0.308
[3]; first compound 0.1 µM
  relative viability: 0.287
[4]; first compound 0.001 µM
  relative viability: 0.688
[4]; first compound 0.003162 µM
  relative viability: 0.882
[4]; first compound 0.01 µM
  relative viability: 0.87
[4]; first compound 0.03162 µM
  relative viability: 0.578
[4]; first compound 0.1 µM
  relative viability: 0.476
[5]; first compound 0.001 µM
  relative viability: 0.244
[5]; first compound 0.003162 µM
  relative viability: 0.379
[5]; first compound 0.01 µM
  relative viability: 0.396
[5]; first compound 0.03162 µM
  relative viability: 0.36
[5]; first compound 0.1 µM
  relative viability: 0.303
[6]; first compound 0.001 µM
  relative viability: 0.56
[6]; first compound 0.003162 µM
  relative viability: 0.451
[6]; first compound 0.03162 µM
  relative viability: 0.435
[6]; first compound 0.1 µM
  relative viability: 0.469
[7]; first compound 0.001 µM
  relative viability: 0.535
[7]; first compound 0.003162 µM
  relative viability: 0.605
[7]; first compound 0.01 µM
  relative viability: 0.561
[7]; first compound 0.03162 µM
  relative viability: 0.466
[7]; first compound 0.1 µM
  relative viability: 0.502
[8]; first compound 0.001 µM
  relative viability: 0.425
[8]; first compound 0.003162 µM
  relative viability: 0.403
[8]; first compound 0.01 µM
  relative viability: 0.46
[8]; first compound 0.03162 µM
  relative viability: 0.489
[8]; first compound 0.1 µM
  relative viability: 0.44
[9]; first compound 0.001 µM
  relative viability: 0.673
[9]; first compound 0.003162 µM
  relative viability: 0.771
[9]; first compound 0.01 µM
  relative viability: 0.666
[9]; first compound 0.03162 µM
  relative viability: 0.607
[9]; first compound 0.1 µM
  relative viability: 0.577
[10]; first compound 0.001 µM
  relative viability: 0.28
[10]; first compound 0.003162 µM
  relative viability: 0.304
[10]; first compound 0.01 µM
  relative viability: 0.308
[10]; first compound 0.03162 µM
  relative viability: 0.276
[10]; first compound 0.1 µM
  relative viability: 0.32
[11]; first compound 0.001 µM
  relative viability: 0.62
[11]; first compound 0.003162 µM
  relative viability: 0.673
[11]; first compound 0.01 µM
  relative viability: 0.588
[11]; first compound 0.03162 µM
  relative viability: 0.583
[11]; first compound 0.1 µM
  relative viability: 0.65
[12]; first compound 0.001 µM
  relative viability: 0.498
[12]; first compound 0.003162 µM
  relative viability: 0.608
[12]; first compound 0.01 µM
  relative viability: 0.653
[12]; first compound 0.03162 µM
  relative viability: 0.345
[12]; first compound 0.1 µM
  relative viability: 0.226
[13]; first compound 0.001 µM
  relative viability: 0.21
[13]; first compound 0.003162 µM
  relative viability: 0.191
[13]; first compound 0.01 µM
  relative viability: 0.193
[13]; first compound 0.03162 µM
  relative viability: 0.211
[13]; first compound 0.1 µM
  relative viability: 0.191
[14]; first compound 0.001 µM
  relative viability: 0.525
[14]; first compound 0.003162 µM
  relative viability: 0.489
[14]; first compound 0.01 µM
  relative viability: 0.536
[14]; first compound 0.03162 µM
  relative viability: 0.498
[14]; first compound 0.1 µM
  relative viability: 0.393
[15]; first compound 0.001 µM
  relative viability: 0.219
[15]; first compound 0.003162 µM
  relative viability: 0.204
[15]; first compound 0.01 µM
  relative viability: 0.213
[15]; first compound 0.03162 µM
  relative viability: 0.187
[15]; first compound 0.1 µM
  relative viability: 0.201
[16]; first compound 0.001 µM
  relative viability: 0.677
[16]; first compound 0.003162 µM
  relative viability: 0.924
[16]; first compound 0.01 µM
  relative viability: 0.935
[16]; first compound 0.03162 µM
  relative viability: 0.395
[16]; first compound 0.1 µM
  relative viability: 0.406
[17]; first compound 0.001 µM
  relative viability: 0.508
[17]; first compound 0.003162 µM
  relative viability: 0.559
[17]; first compound 0.01 µM
  relative viability: 0.49
[17]; first compound 0.03162 µM
  relative viability: 0.489
[17]; first compound 0.1 µM
  relative viability: 0.478
[18]; first compound 0.001 µM
  relative viability: 0.494
[18]; first compound 0.003162 µM
  relative viability: 0.52
[18]; first compound 0.01 µM
  relative viability: 0.512
[18]; first compound 0.03162 µM
  relative viability: 0.443
[18]; first compound 0.1 µM
  relative viability: 0.404
[19]; first compound 0.001 µM
  relative viability: 0.438
[19]; first compound 0.003162 µM
  relative viability: 0.396
[19]; first compound 0.01 µM
  relative viability: 0.404
[19]; first compound 0.03162 µM
  relative viability: 0.444
[19]; first compound 0.1 µM
  relative viability: 0.361
[20]; first compound 0.001 µM
  relative viability: 0.45
[20]; first compound 0.003162 µM
  relative viability: 0.741
[20]; first compound 0.01 µM
  relative viability: 0.666
[20]; first compound 0.03162 µM
  relative viability: 0.426
[20]; first compound 0.1 µM
  relative viability: 0.713
[21]; first compound 0.001 µM
  relative viability: 0.526
[21]; first compound 0.01 µM
  relative viability: 0.542
[21]; first compound 0.03162 µM
  relative viability: 0.566
[21]; first compound 0.1 µM
  relative viability: 0.518
[22]; first compound 0.001 µM
  relative viability: 0.347
[22]; first compound 0.003162 µM
  relative viability: 0.298
[22]; first compound 0.01 µM
  relative viability: 0.313
[22]; first compound 0.03162 µM
  relative viability: 0.377
[22]; first compound 0.1 µM
  relative viability: 0.32
[23]; first compound 0.001 µM
  relative viability: 0.299
[23]; first compound 0.003162 µM
  relative viability: 0.296
[23]; first compound 0.01 µM
  relative viability: 0.299
[23]; first compound 0.03162 µM
  relative viability: 0.374
[23]; first compound 0.1 µM
  relative viability: 0.313

— the supplement of paper PMC10307832
